Experimental data reported in US20240300913A1, “FLAVONE DERIVATIVE AND USE THEREOF FOR IMPROVING PULMONARY FIBROSIS” (A-CHEMBIO CO., LTD, priority 2023, published 2024).

Experiments:
A549 cells [1] = assay: Effect upon TGF-β1 treatment in A549 cells (western blot of protein levels); type: cell-based; conditions: 5 ng/mL TGF-β1 and compound, 24 hours, FIG. 30
Experimental: 3.5*10^5 A549 cells, derived from lung cancer, were suspended in a medium, dispensed into a 60-mm plate, and incubated for 48 hours. After 48 hours of incubation, each plate was treated with TGF-β1 (10 ng/ml) alone or in combination with novel flavone derivative I at varying concentrations or a predetermined concentration and/or nintedanib (NIDB), a therapeutic drug for idiopathic pulmonary fibrosis and interstitial lung disease as a positive control. […] Next, only the supernatant was collected by centrifugation (at 14,000 rpm for 10 minutes) at 4° C., and the proteins were separated by SDS-polyacrylamide gel electrophoresis (SDS-PAGE). The separated proteins were transferred to a polyvinylidene difluoride membrane (PVDF membrane), reacted in 5% nonfat dry milk for 3 hours, and then reacted with primary antibodies at 4° C. for 12 hours. After 12 hours, the proteins further reacted with secondary antibodies corresponding to the respective primary antibodies. Then, the protein band was examined, according to the manufacturer's protocol, using an ECL kit.
The effect of novel flavone derivative II upon TGF-β1 treatment in A549 cells was evaluated in the same manner as in Example 1 above. FIGS. 20 and 21 show the results thereof.
The effect of novel flavone derivative III upon TGF-β1 treatment in A549 cells was evaluated in the same manner as in Example 1 above.

A549 cells [2] = assay: MTT cytotoxicity evaluation in A549 cells; type: cell-based; conditions: all treatment concentrations up to 20 μM, incubated for 24, 48, and 72 hours, compared to untreated control
Experimental: To confirm the effect of novel flavone derivative I on cell viability, A549 cells, derived from lung cancer, were used to examine cell viability with MTT [3-(4,5-dimethylthiazol-2-yl)-2,5-diphenyltetrazolium bromide]. After being suspended in a medium, A549 cells were dispensed into a 96-well plate and incubated for 24 hours. After 24 hours, 200 μL of a medium containing 0 to 20 μM BGC was added to each well of the plate and incubated for 24 or 48 hours. After incubation, MTT was diluted (0.5 mg/ml) in phosphate-buffered saline (PBS). Then, 20 μL of the diluted MTT was dispensed into each well, and incubation was performed in a CO2 incubator for 4 hours. After 4 hours, the MTT solution was removed, and 200 μL of dimethyl sulfoxide (DMSO) was dispensed into each well to dissolve the formazan precipitate for 5 minutes. Next, the absorbance was measured at 595 nm.
(§1) Cytotoxicity tests of novel flavone derivative II (Achem II) on A549 cells, HULEC-5a cells, and HLF cells were performed in the same manner as in Example 1 above, using the MTT assay. The results thereof are shown in FIGS. 17 to 19 as cell viability (%) after 24, 48, and 72 hours compared to that of the control group, the untreated sample group.
as §1, with “III” for “II”, “III)” for “II)”, “27” for “17”, “29” for “19”

HLF cells [3] = assay: Effect upon TGF-β1 treatment in HLF cells (western blot of protein levels); type: cell-based, human; conditions: 5 ng/mL TGF-β1 and compound, 24 hours, FIG. 32
Experimental: After suspending 5×10^6 human lung fibroblast (HLF) cells in a medium, […] dispensed into a 100-mm plate, and incubated for 24 hours. […] After 24 and 48 hours of incubation, the cells were lysed with RIPA lysis buffer ([50 mM Tris]-Cl (pH, 7.4), 1% NP-40, 150 mM NaCl, 1 mM EDTA, and 1 mM phenylmethylsulfonyl fluoride (PMSF)) containing MG-132 (10 μM, proteasome inhibitor, protect the HIF-1α subunit from proteasome degradation). Next, only the supernatant was collected by centrifugation (at 13,000 rpm for 7 minutes) at 4° C., and the proteins were separated by SDS-polyacrylamide gel electrophoresis (SDS-PAGE). The separated proteins were transferred to a polyvinylidene difluoride membrane (PVDF membrane), reacted in 5% nonfat dry milk for 2 hours, and then reacted with primary antibodies at 4° C. overnight. After overnight, the proteins further reacted with secondary antibodies corresponding to the respective primary antibodies. Then, the protein band was examined, according to the manufacturer's protocol, using an ECL kit.
The effect of novel flavone derivative II upon TGF-β1 treatment in HLF cells was evaluated in the same manner as in Example 1 above.
The effect of novel flavone derivative III upon TGF-β1 treatment in HLF cells was evaluated in the same manner as in Example 1 above.

HULEC-5a cells [4] = assay: MTT cytotoxicity evaluation in HULEC-5a cells; type: cell-based, human; conditions: compared to untreated control
Experimental: (§2) To confirm the effect of novel flavone derivative I on cell viability, HULEC-5a, human lung microvascular endothelial cells, were used to examine cell viability with MTT [3-(4,5-dimethylthiazol-2-yl)-2,5-diphenyltetrazolium bromide]. After being suspended in a medium, HULEC-5a cells were dispensed into a 96-well plate and incubated for 24 hours. […] After incubation, all media was removed, and MTT was diluted (0.5 mg/mL) in phosphate-buffered saline (PBS). Then, 200 μL of the diluted MTT was dispensed into each well, and incubation was performed in a CO2 incubator for 4 hours. After 4 hours, the MTT solution was removed, and 160 μL of dimethyl sulfoxide (DMSO) was dispensed into each well to dissolve the formazan precipitate for 30 minutes. Next, the absorbance was measured at 570 nm.
as §1
as §1, with “III” for “II”, “III)” for “II)”, “27” for “17”, “29” for “19”

HULEC-5a cells [5] = assay: Effect upon TGF-β1 treatment in Hulec-5a cells (western blot of protein levels); type: cell-based, human; conditions: Hulec-5a cells, 5 ng/mL TGF-β1 and compound, 24 hours, FIG. 31
Experimental: 1.2×10^6 Hulec-5a cells, derived from pulmonary vessels, were suspended in a medium, dispensed into a 100-mm plate, and incubated for 24 hours. After 24 hours of incubation, each plate was treated with TGF-β1 (10 ng/ml) alone or in combination with novel flavone derivative I at varying concentrations or a predetermined concentration and/or nintedanib (NIDB), a therapeutic drug for idiopathic pulmonary fibrosis and interstitial lung disease. After 3, 24, and 48 hours of incubation, the cells were lysed with RIPA lysis buffer ([50 mM Tris]-Cl (pH, 7.4), 1% NP-40, 150 mM NaCl, 1 mM EDTA, and 1 mM phenylmethylsulfonyl fluoride (PMSF)) containing MG-132 (10 μM, proteasome inhibitor, protect the HIF-1α subunit from proteasome degradation). Next, only the supernatant was collected by centrifugation (at 13,000 rpm for 7 minutes) at 4° C., and the proteins were separated by SDS-polyacrylamide gel electrophoresis (SDS-PAGE). The separated proteins were transferred to a polyvinylidene difluoride membrane (PVDF membrane), reacted in 5% nonfat dry milk for 2 hours, and then reacted with primary antibodies at 4° C. overnight. After overnight, the proteins further reacted with secondary antibodies corresponding to the respective primary antibodies. Then, the protein band was examined, according to the manufacturer's protocol, using an ECL kit.
The effect of novel flavone derivative II upon TGF-β1 treatment in Hulec-5a cells was evaluated in the same manner as in Example 1 above.
The effect of novel flavone derivative III upon TGF-β1 treatment in Hulec-5a cells was evaluated in the same manner as in Example 1 above.

HLF cells [6] = assay: MTT cytotoxicity evaluation in HLF cells; type: cell-based, human; conditions: concentrations of 15 and 20 μM, incubated for 24 hours, compared to untreated control
Experimental: as §2, with “viability,” for “viability, HULEC-5a,”, “fibroblasts (HLF)” for “microvascular endothelial cells,”, “HLF” for “HULEC-5a”
as §1
as §1, with “III” for “II”, “III)” for “II)”, “27” for “17”, “29” for “19”

COc1ccc(-c2c(-c3ccc(O)c(OC)c3)oc3cc(OC)c(OC)cc3c2=O)cc1 [novel flavone derivative III, 2-(4-hydroxy-3-methoxyphenyl)-6,7-dimethoxy-3-(4-methoxyphenyl)-4H-chromen-4-one]
levels of fibronectin, COL4, and COL3, increased by TGF-β1 treatment (A549 cells [1]): decreased | cell viability (A549 cells [2]): ≥ 80% | levels of fibronectin, COL4, COL1, α-SMA, HIF-1α, and NOX2, increased by TGF-β1 treatment (HLF cells [3]): decreased | cell viability (HULEC-5a cells [4]; concentration of 20 μM, incubated for 24 hours): ≤ 80% | cell viability (HULEC-5a cells [4]; concentrations up to 15 μM, incubated for 24, 48, and 72 hours): ≥ 80% | levels of fibronectin, COL4, and COL3, increased by TGF-β1 treatment (HULEC-5a cells [5]): decreased | cell viability (HLF cells [6]): ≤ 80%
